Test results: patent publication US20060234919A1, “Use” (priority 2001, published 2006)

What was measured:
Assay type in all cases: in vivo, rat
myeloperoxidase = test: carrageenan induced myeloperoxidase accumulation in the hindpaw; details: 1000 μg/kg s.c.; 6 hours after treatment; saline controls 5.4±1.1; p<0.01
Experimental: The rats were treated s.c. with oxytocin (1000 μg/kg) (n=6) or saline (n=6) immediately before the carrageenan injection. The accumulation of myeloperoxidase in the rat right hindpaw was measured 6 hours after the treatment with oxytocin or saline, and carrageenan. To determine the recruitment of neutrophils in response to the carrageenan induced inflammation in the rat hindpaw, the paws were weighed and homogenised in 10 ml 0.5% hexadecyltrimethyl-ammonium bromide (Sigma Chemical Co, USA), and freeze-thawed, whereafter the myeloperoxidase activity of the supernatant was assessed. The enzyme activity was determined spectrophotometrically as the change in absorbance at 650 nm (25° C.) occuring in the redox reaction of H2O2-tetramethylbenzidine (Sigma Chemical Co, USA) catalysed by myeloperoxidase. Values are expressed as myeloperoxidase units/g tissue. […] The myeloperoxidase concentration (i.e. the neutrophil recruitment) in the hindpaw was 3.5±0.72 units/g tissue in the oxytocin-treated rats compared to 5.4±1.1 units/g in the saline-treated controls (p<0.01) (FIG. 6).

lipase = test: caerulein-induced pancreatitis, lipase activity in pancreatic tissue; details: 1 mg/ml s.c.; caerulein alone 4.87±0.72, control 0.24±0.26
Experimental: (§1) Caerulein-induced pancreatitis: Female Sprague-Dawley rats (200-250 g) were anaesthetized with pentobarbitone sodium and phenobarbitone sodium (each 40 mg/kg, i.p.). The cholecystokinin analogue caerulein (8 nmol/kg in 2 h) was infused via one jugular vein for exocrine hyperstimulation and induction of acute edematous pancreatitis (Lampel M, Kern H F. Acute interstitial pancreatitis in the rat in-duced by excessive doses of a pancreatic secretagogue. Virchows Arch (Pathol Anat) 1997; 373: 97-117), while control animals were infused with a corresponding volume (4 ml/kg/h) of phosphate-buffered saline. Pre-treatment with the kininase II inhibitor captopril ([…], i. p.) was given 30 min prior to the infusion of caerulein. At the end of the experiment, the animals were sacrificed with an overdose of pentobarbital sodium. The pancreatic tissue was dried for 16 h in a vacuum centrifuge and the edema was quantified as fluid wt. per dry wt. of the tissue. For the determination of lipase activity in serum, the blood was collected following decapitation in separate groups of rats. The pancreas of these animals was excised an placed immediately into 2 ml of a 154 mmol/l solution of NaCl. After centrifugation at 2×10^5 m/s^2 for 25 min the supernatant was stored at −80° C. All samples were assayed for lipase activity (lipase test Boehringer Mannheim, Germany).

[1] = test system: caerulein-induced pancreatitis; test: caerulein-induced pancreatitis, pancreatic edema; details: subcutaneous pre-treatment 1 mg/ml; caerulein alone 8.11±0.96, control 3.12±0.52
Experimental: as §1

N-acetyl-LTE4 = test: OVA-induced N-acetyl-LTE4 synthesis in BN rats (experimental asthma model); details: for biliary excretion of N-acetyl-LTE4: 1.0 mg/kg by aerosol
Experimental: Inbred male BN rats, 7-9 weeks old, were obtained from Harlan Sprague-Dawley. Active sensitisation was performed by subcutaneous injection of 1 ml of saline containing 1 mg of ovalbumin and 3.48 mg of aluminum hydroxide. At the same time, 0.3 ml of Bordetella pertussis vaccine containing heat-killed organisms was given intraperitoneally as an adjuvant. Animals were studied 14-21 days after sensitisation.
Two groups of rats (n=3 for each group) were lightly anaesthetised with xylazine (7 mg/kg) and pentobarbital (30 mg/kg ip) before endotracheal intubation. Each rat then received either saline or 1.0 mg/kg oxytocin (1.0 mg/ml) by aerosol over a period of 5 min using a disposable nebulizer at a flow rate of […] and an output of 0.15 ml/min. Seventeen hours later, the animals were again anaesthetised, and these treatments were repeated. After a further hour, each of the rats was challenged with aerosolised 5% OVA in saline for 5 min.
Before the second treatment with oxytocin or saline, the rats were anaesthetised with urethane (1 g/kg ip, 50% wt/vol). After blind orotracheal intubation (6 cm of PE-240 polyethylene catheter), the common bile duct was exposed and cannulated (15 cm of PE-20 polyethylene tubing) after ligation of duodenal end. The rats were allowed to stabilise for a period of 2 h before challenge with OVA. Bile was collected for 1 h before and for 2 consecutive periods of 1 h after OVA challenge ([…]). All bile samples were collected on ice in 1.5-ml Eppendorf tubes. The bile was kept frozen at […] before analysis.
Bile samples were thawed, and methanol was added to 0.3-ml aliquots to give a final concentration of 80%. […] Ultraviolet absorbance was monitored by a variable wavelength ultraviolet detector. […]
Column fractions were evaporated to dryness in a centrifuge under vacuum, and the residues were dissolved in phosphate-buffered saline (0.1 ml at pH 8.2). N-acetyl-LTE4 was measured in each fraction by using a monoclonal antibody directed against LTC4, which cross-reacted with N-acetyl-LTE4. […]

Oxytocin
myeloperoxidase concentration (neutrophil recruitment) in the hindpaw (myeloperoxidase): 3.5±0.72 units/g tissue | active lipase in the pancreatic tissue (lipase): 1.34±0.29 U/mg | water content of the pancreatic tissue (edema formation) [1]: 5.25±0.68 g/g d. wt. | biliary excretion of N-acetyl-LTE4 (N-acetyl-LTE4; early response 0-1 h after OVA challenge, control 6.9±1.8): 4.3 ± 2.1 pmol/h | biliary excretion of N-acetyl-LTE4 (N-acetyl-LTE4; late response 5-6 h after OVA challenge, control 5.2±0.9): 2.6 ± 0.8 pmol/h | levels of N-acetyl-LTE4 in oxytocin-treated vs control groups (N-acetyl-LTE4; before OVA challenge): almost identical
